How the values were obtained:
Type in all cases: in vivo
[1] = tested on: Cowpea Aphid (Aphis craccivora); assay: Cowpea aphid spray test on potted cowpea plants; conditions: assessed after 72 hours, sprayed cowpea plants, read-out: mortality in comparison with untreated controls
Protocol: B.1 Cowpea Aphid (Aphis craccivora)
The active compound is dissolved at the desired concentration in a mixture of 1:1 (vol:vol) distilled water:acetone. Surfactant (Alkamuls® EL 620) is added at a rate of 0.1% (vol/vol). The test solution is prepared at the day of use.
Potted cowpea plants were colonized with approximately 50-100 aphids of various stages by manually transferring a leaf tissue cut from infested plant 24 hours before application. Plants were sprayed after the pest population has been recorded. Treated plants are maintained on light carts at about 28° C. Percent mortality was assessed after 72 hours

[2] = tested on: Diamond Back Moth (Plutella xylostella); assay: Diamond back moth cabbage leaf dip test; conditions: foliar, 72 hours after treatment, 3rd instar larvae on dipped cabbage leaves, read-out: mortality in comparison with untreated controls
Protocol: B.2 Diamond Back Moth (Plutella xylostella)
The active compound is dissolved at the desired concentration in a mixture of 1:1 (vol:vol) distilled water:aceteone. Surfactant (Alkamuls® EL 620) is added at a rate of 0.1% (vol/vol).The test solution is prepared at the day of use.
Leaves of cabbage were dipped in test solution and air-dried. Treated leaves were placed in petri dish eslined with moist filter paper and inoculated with ten 3rd instar larvae. Mortality was recorded 72 hours after treatment. Feeding damages were also recorded using a scale of 0-100%.

[3] = tested on: Orchid Thrips (Dichromothrips corbetti); assay: Orchid thrips floral-immersion test; conditions: 72 hours after treatment, adult thrips on dipped orchid flowers, read-out: mortality in comparison with untreated controls
Protocol: B.3 Orchid Thrips (Dichromothrips corbetti)
Dichromothrips corbetti adults used for bioassay were obtained from a colony maintained continuously under laboratory conditions. For testing purposes, the test compound is diluted in a 1:1 mixture of acetone:water (vol:vol), plus 0.01% vol/vol Alkamuls® EL 620 surfactant.
Thrips potency of each compound was evaluated by using a floral-immersion technique. Plastic petri dishes were used as test arenas. All petals of individual, intact orchid flowers were dipped into treatment solution and allowed to dry. Treated flowers were placed into individual petri dishes along with about 20 adult thrips. The petri dishes were then covered with lids. All test arenas were held under continuous light and a temperature of about 28° C. for duration of the assay. After 3 days, the numbers of live thrips were counted on each flower, and along inner walls of each petri dish. The percent mortality was recorded 72 hours after treatment.

[4] = tested on: Southern Armyworm (Spodoptera eridania); assay: Southern armyworm lima bean foliar spray test; conditions: 96 h, 4 days after treatment, larvae on sprayed lima bean plants, read-out: mortality in comparison with untreated controls
Protocol: B.5 Southern Armyworm (Spodoptera eridania)
(§1) The active compounds were formulated in cyclohexanone as a 10,000 ppm solution supplied in tubes. The tubes were inserted into an automated electrostatic sprayer equipped with an atomizing nozzle and they served as stock solutions for which lower dilutions were made in 50% acetone:50% water (v/v). A nonionic surfactant (Kinetic®) was included in the solution at a volume of 0.01% (v/v).
(§2) Lima bean plants (variety Sieva) were grown 2 plants to a pot and selected for treatment at the 1st true leaf stage. Test solutions were sprayed onto the foliage by an automated electrostatic plant sprayer equipped with an atomizing spray nozzle. The plants were dried in the sprayer fume hood and then removed from the sprayer. Each pot was placed into perforated plastic bags with a zip closure. About 10 to 11 armyworm larvae were placed into the bag and the bags zipped closed. Test plants were maintained in a growth room at about 25° C. and about 20-40% relative humidity for 4 days, avoiding direct exposure to fluorescent light (24 hour photoperiod) to prevent trapping of heat inside the bags. Mortality and reduced feeding were assessed 4 days after treatment, compared to untreated control plants.

[5] = tested on: Vetch Aphid (Megoura viciae); assay: Vetch aphid broad bean leaf disk microtiter test; conditions: foliar, 120 h, 5 days, adult aphids on sprayed broad bean leaf disks, read-out: mortality in comparison with untreated controls
Protocol: B.6 Vetch Aphid (Megoura viciae)
For evaluating control of vetch aphid (Megoura viciae) through contact or systemic means the test unit consisted of 24-well-microtiter plates containing broad bean leaf disks.
The compounds were formulated using a solution containing 75% v/v water and 25% v/v DMSO. Different concentrations of formulated compounds were sprayed onto the leaf disks at 2.5 μl, using a custom built micro atomizer, at two replications.
After application, the leaf disks were air-dried and 5-8 adult aphids placed on the leaf disks inside the microtiter plate wells. The aphids were then allowed to suck on the treated leaf disks and incubated at about 23±1° C. and about 50±5% relative humidity for 5 days. Aphid mortality and fecundity was then visually assessed.

[6] = tested on: Tobacco Budworm (Heliothis virescens); assay: Tobacco budworm I (B.7a) cotton plant spray test; conditions: 96 h, 4 days after treatment, larvae on sprayed cotton plants (B.7a), read-out: mortality in comparison with untreated controls
Protocol: B.7a Tobacco Budworm (Heliothis virescens) I
as §1
as §2, with “Cotton” for “Lima bean”, “plants” for “plants (variety Sieva)”, “cotyledon” for “1st true leaf”, “budworm” for “armyworm”

[7] = tested on: Tobacco Budworm (Heliothis virescens); assay: Tobacco budworm I (B.7b) cotton plant spray test; conditions: 96 h, 4 days after treatment, larvae on sprayed cotton plants (B.7b), read-out: mortality in comparison with untreated controls
Protocol: B.7b Tobacco Budworm (Heliothis virescens) I
as §1
as §2, with “Cotton” for “Lima bean”, “plants” for “plants (variety Sieva)”, “cotyledon” for “1st true leaf”, “budworm” for “armyworm”

[8] = tested on: Boll Weevil (Anthonomus grandis); assay: Boll weevil insect diet microtiter test; conditions: 120 h, 5 days, eggs on sprayed insect diet, read-out: mortality (egg and larval) in comparison with untreated controls
Protocol: B.8 Boll Weevil (Anthonomus grandis)
For evaluating control of boll weevil (Anthonomus grandis) the test unit consisted of 24-well-microtiter plates containing an insect diet and 20-30 A. grandis eggs.
The compounds were formulated using a solution containing 75% v/v water and 25% v/v DMSO. Different concentrations of formulated compounds were sprayed onto the insect diet at 20 μl, using a custom built micro atomizer, at two replications.
After application, microtiter plates were incubated at about 23±1° C. and about 50±5% relative humidity for 5 days. Egg and larval mortality was then visually assessed.

[9] = tested on: Colorado Potato Beetle (Leptinotarsa decemlineata); assay: Colorado potato beetle eggplant foliage spray test; conditions: foliar, 96 h, 4 days after treatment, larvae on sprayed eggplant foliage, read-out: mortality in comparison with untreated controls
Protocol: B.9 Colorado Potato Beetle (Leptinotarsa decemlineata)
as §1
Eggplants were grown 2 plants to a pot and were selected for treatment at the 1st true leaf stage. Test solutions were sprayed onto the foliage by an automated electrostatic plant sprayer equipped with an atomizing spray nozzle. The plants were dried in the sprayer fume hood and then removed from the sprayer. The treated foliage was then cut and removed from the pot and placed in a Petri dish lined with moistened filter pa-per. Five beetle larvae were introduced into each Petri dish and the dish was covered by a Petri dish lid. Petri dishes were maintained in a growth room at about 25° C. and about 20-40% relative humidity for 4 days, avoiding direct exposure to fluorescent light (24 hour photoperiod) to prevent trapping of heat inside the dishes. Mortality and reduced feeding were assessed 4 days after treatment, compared to untreated control plants.

CCS(CC1CC1)=NC(=O)c1cc(Cl)cc(C)c1NC(=O)c1cc(C(F)(F)F)nn1-c1ncccc1Cl (stereo not drawn) [Compound 1, 2-(3-chloro-2-pyridyl)-N-[2-methyl-4-chloro-6-[(cyclopropylmethyl-ethyl-λ^4-sulfanylidene)carbamoyl]phenyl]-5-(trifluoromethyl)pyrazole-3-carboxamide]
≥ 75%: mortality at 300 ppm [1] | mortality at 300 ppm [2] | mortality at 300 ppm [3] | mortality at 1 ppm [4] | mortality at 2500 ppm [5] | mortality at 2500 ppm [6] | mortality at 10 ppm [7] | mortality at 2500 ppm [8] | mortality at 10 ppm [9]
